Here are results for 16 compounds from PubChem BioAssay (NCI).

Among the test systems are SK-MEL-28 melanoma; HT29 colon; BT-549 breast; SF-295 CNS; TK-10 renal; SNB-19 CNS; MDA-MB-231 breast; PC-3 prostate; OVCAR-3 ovarian; CCRF-CEM leukemia.
What all share (assay): NCI-60 cell line screen, 48 h

Each structure is given as a SMILES string.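 All cell lines were grown in 96-well plates and treated with compound for 48 hours. At the GI50, growth is halved. TGI denotes the concentration required for complete inhibition of growth.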 Some results are limits rather than exact numbers.

Regarding `CC(C)(C)OC(=O)NC(Cc1ccc(O)cn1)C(N)=O` (centres undefined), the TGI with SK-MEL-28 melanoma, in the assay with HT29 colon, in the assay on BT-549 breast, in the assay with SF-295 CNS, with TK-10 renal and in the assay on SNB-19 CNS was more than 100 µM each time. Moreover, the TGI in the assay on MDA-MB-231 breast, in the assay with PC-3 prostate and in the assay on OVCAR-3 ovarian was more than 100 µM throughout.
For the compound `COc1ccccc1NC(=S)N/N=C(/C)c1ccccn1`, the TGI in the assay on SK-MEL-28 melanoma was more than 100 µM; in the assay on CCRF-CEM leukemia, 0.0737 µM; in the assay with HT29 colon, more than 100 µM; with SF-295 CNS it was more than 100 µM; in the assay with TK-10 renal, 58.9 µM; in the assay with SNB-19 CNS, more than 100 µM. Moreover, the TGI is 7.46 µM in the assay on MDA-MB-231 breast and more than 100 µM with PC-3 prostate.
With `O=c1[nH]c(=O)n(COCc2ccccc2)c2ccc([N+](=O)[O-])cc12`, the TGI in the assay on SK-MEL-28 melanoma, with CCRF-CEM leukemia, in the assay with HT29 colon, in the assay on SF-295 CNS, with TK-10 renal and in the assay on MDA-MB-231 breast was more than 100 µM throughout. Further, the TGI with PC-3 prostate and in the assay on OVCAR-3 ovarian was more than 100 µM each time.
With `CC1(C)[C@@H](Cn2cnc3c(=O)[nH]c(N)nc32)CC[C@@]1(C)CO`, the TGI with SK-MEL-28 melanoma, with CCRF-CEM leukemia, with SF-295 CNS, in the assay on TK-10 renal, in the assay on SNB-19 CNS and in the assay on MDA-MB-231 breast was more than 100 µM throughout. Also, the TGI with PC-3 prostate and in the assay on OVCAR-3 ovarian was more than 100 µM in each case.
Consider `CCNC(=O)/C=C/CCC#Cc1ccc(-c2ccc(-c3cccs3)s2)s1`, for which the TGI in the assay on CCRF-CEM leukemia, with HT29 colon, in the assay with SF-295 CNS, in the assay with TK-10 renal, in the assay with SNB-19 CNS and in the assay on OVCAR-3 ovarian was more than 100 µM each time.
On to `C=C(CC(=O)Nc1ccc(C(=O)OC)o1)C(=O)OC`, for which the TGI was 44.6 µM in the assay on SK-MEL-28 melanoma; 70.2 µM in the assay on HT29 colon; more than 100 µM with SF-295 CNS; 46.1 µM in the assay with TK-10 renal; more than 100 µM in the assay with SNB-19 CNS; 58.2 µM in the assay with MDA-MB-231 breast. The TGI in the assay on PC-3 prostate was found to be 58.9 µM.
For `COc1cccc2c1C1(O)C2CCCC12OCCCO2` (centres undefined), the TGI in the assay with SK-MEL-28 melanoma, in the assay on CCRF-CEM leukemia, with HT29 colon, in the assay on SF-295 CNS, with TK-10 renal and in the assay with SNB-19 CNS was more than 100 µM in each case. In the assay with OVCAR-3 ovarian, this compound came in with a TGI of more than 100 µM.
Consider `CC1CCc2c(sc3ncnc(N/N=C/c4ccc(Cl)c(Cl)c4)c23)C1` (centres undefined), for which the TGI is more than 100 µM with SK-MEL-28 melanoma; 41.6 µM in the assay with CCRF-CEM leukemia; more than 100 µM with HT29 colon; 43.2 µM in the assay with SF-295 CNS; more than 100 µM in the assay on TK-10 renal; 74.3 µM in the assay on SNB-19 CNS. For the same compound, the TGI in the assay on OVCAR-3 ovarian is 57.4 µM.
As to `CC(=O)NC1=C(C)C(=O)c2c(nc3n2CCC3O)C1=O` (centres undefined), the TGI in the assay on SK-MEL-28 melanoma is more than 100 µM; in the assay with CCRF-CEM leukemia it was 39.3 µM; in the assay on HT29 colon, more than 100 µM; with SF-295 CNS it was more than 100 µM; with TK-10 renal, more than 100 µM; with SNB-19 CNS it was more than 100 µM. In the assay on OVCAR-3 ovarian, this compound displayed a TGI of more than 46.1 µM.
For the compound `CC(=O)NC1C(OCc2ccccc2)OC(CO)C(O)C1OCC(=O)NC(C)C(=O)NC(CCC(=O)NCCCCCNc1c2ccccc2nc2cccc([N+](=O)[O-])c12)C(N)=O` (centres undefined), the TGI in the assay on SK-MEL-28 melanoma was less than 0.0001 µM; in the assay on HT29 colon, less than 0.0001 µM; in the assay on BT-549 breast, less than 0.0001 µM; in the assay with SF-295 CNS, 0.0265 µM; with TK-10 renal, 1.54 µM; in the assay on MDA-MB-231 breast it was less than 0.0001 µM. The compound further displayed a TGI in the assay on PC-3 prostate of less than 0.0001 µM. The GI50 in the assay with TK-10 renal was less than 0.0001 µM.
On to `O=C(c1ccccc1)c1c(C(F)(F)F)n([O-])c2cc(Cl)c(Cl)cc2[n+]1=O`, for which the TGI in the assay on SK-MEL-28 melanoma amounted to 7.19 µM; in the assay with CCRF-CEM leukemia, 3.7 µM; in the assay with HT29 colon, 0.966 µM; with BT-549 breast it was 4.8 µM; in the assay with SF-295 CNS it was 7.31 µM; in the assay with TK-10 renal, 2.56 µM. Also, the figures for the TGI in the assay on SNB-19 CNS, in the assay on PC-3 prostate and with OVCAR-3 ovarian were 3 µM, 4.03 µM and 0.815 µM, respectively.
As for `CSc1nc(NC2OCC(O)C(O)C2O)c(N)c(=O)n1C` (centres undefined), the TGI in the assay on SK-MEL-28 melanoma, with CCRF-CEM leukemia, in the assay with HT29 colon, in the assay with SF-295 CNS, with SNB-19 CNS and in the assay with OVCAR-3 ovarian was more than 100 µM in each case.
Consider `Fc1ccc(C2CC(c3cccc(Nc4ccncc4)c3)=NN2c2cc(Cl)cc(Cl)c2)cc1` (centres undefined), for which the GI50 with SK-MEL-28 melanoma is 1.74 µM; in the assay on CCRF-CEM leukemia it was 2.9 µM; with BT-549 breast, 1.88 µM; with SF-295 CNS it was 1.77 µM; in the assay on TK-10 renal, 1.94 µM; in the assay with SNB-19 CNS, 1.74 µM. Also, the GI50 in the assay on PC-3 prostate was 1.55 µM; in the assay with OVCAR-3 ovarian, 1.8 µM. The TGI is 3.31 µM in the assay on SK-MEL-28 melanoma; more than 100 µM in the assay with CCRF-CEM leukemia; 3.63 µM in the assay on BT-549 breast; 3.21 µM in the assay on SF-295 CNS; 3.84 µM with TK-10 renal; 3.32 µM in the assay on SNB-19 CNS. Moreover, the values for the TGI in the assay on PC-3 prostate and with OVCAR-3 ovarian were 3.14 µM and 3.32 µM, respectively.
Take `CC(=O)OCc1cc(=O)n(C)c2c3c4c(cc12)c(C)cc(=O)n4CO3`: the TGI in the assay on SK-MEL-28 melanoma is 3.42 µM; in the assay on CCRF-CEM leukemia it was 12.7 µM; with HT29 colon, 8.81 µM; with SF-295 CNS, 6.49 µM; in the assay with SNB-19 CNS, 72.8 µM; with OVCAR-3 ovarian it was 7.74 µM.
`OCC(O)C1OC2CC1Nc1ccccc1N2` (centres undefined): the TGI in the assay on SK-MEL-28 melanoma, in the assay with CCRF-CEM leukemia, with HT29 colon, in the assay with SF-295 CNS, in the assay on TK-10 renal and in the assay with SNB-19 CNS was more than 100 µM each time. Moreover, the TGI with MDA-MB-231 breast, with PC-3 prostate and in the assay with OVCAR-3 ovarian was more than 100 µM in each case.
With `O=C(NC1(C(=O)NNc2nnc(-c3ccccc3)c(-c3ccccc3)n2)C(c2ccccc2)C(c2ccccc2)=NN1c1ccccc1)c1ccccc1` (centres undefined), the TGI in the assay on HT29 colon, in the assay with BT-549 breast, in the assay on SF-295 CNS, in the assay with TK-10 renal, in the assay with SNB-19 CNS and in the assay with MDA-MB-231 breast was more than 100 µM throughout. Further, the TGI with PC-3 prostate and in the assay on OVCAR-3 ovarian was more than 100 µM each time.
